The species named for one assay is Bos taurus. Nature of the assay: Activation of bovine cardiac actin thin filament complex-stimulated myosin S1 ATPase activity assessed as inorganic phosphate liberated at 10 uM incubated for 10 mins in presence of ATP by spectrophotometry relative to control.
The species named for the next assay is Gallus gallus. The experiment in a line: Activation of chicken gizzard muscle actin and tropomyosin-stimulated myosin S1 ATPase activity assessed as inorganic phosphate liberated at 100 uM incubated for 10 mins in presence of ATP by spectrophotometry relative to control.
Assay [1] has as its system Rattus norvegicus. Nature of the assay: Positive […] activity in Sprague-Dawley rat assessed as increase in fractional shortening at 16 ug/kg/min, iv for 3 mins by echocardiography relative to control. It counts as functional.
The next assay is filed under the species Oryctolagus cuniculus. Nature of the assay: Activation of rabbit skeletal muscle actin thin filament complex-stimulated myosin S1 ATPase activity assessed as inorganic phosphate liberated at 100 uM incubated for 10 mins in presence of ATP by spectrophotometry relative to control.
For assay [2], the system named is Rattus norvegicus. The experiment in a line: Positive […] activity in Sprague-Dawley rat assessed as increase in ejection fraction at 16 ug/kg/min, iv for 3 mins by echocardiography relative to control. It counts as functional.
The species entered for assay [3] is Rattus norvegicus. Nature of the assay: Activation of myosin ATPase activity in Sprague-Dawley rat ventricular myocytes assessed as increase in ventricular cell shortening by measuring change in ventricular cell contractility at 5 uM by electrophysiology relative to control.
Assay [4] is filed under the species Rattus norvegicus. Nature of the assay: Activation of myosin ATPase activity in Sprague-Dawley rat ventricular myocytes assessed as increase in ventricular cell shortening by measuring change in ventricular cell contractility at 1 uM by electrophysiology relative to control.

For `O=C(CCCCc1ccccc1)NCCc1ccccc1F`, the Activity in the assay filed under Bos taurus is 43.3%.

Regarding `O=C(NCCCc1ccccc1)NCc1ccccc1`, the Activity in the assay listed under Bos taurus came out at 53.3%.

For the compound `CN(CCCc1ccccc1)C(=O)CCCc1ccc(S(=O)(=O)N(C)C)cc1`, the Activity in the assay listed under Gallus gallus is -3.4%; with Rattus norvegicus [1] it was 24.69%; in the assay listed under Oryctolagus cuniculus, 2.3%; in the assay listed under Bos taurus it was 55%; in the assay on Rattus norvegicus [2], 14.08%; in the assay filed under Rattus norvegicus [3], 46.5%.

As to `CCN(Cc1ccc(S(=O)(=O)N(C)C)cc1)C(=O)CCCCc1ccccc1`, the Activity in the assay listed under Bos taurus stood at 17.5%.

As for `NS(=O)(=O)c1ccc(CCNC(=O)CCCCc2ccccc2)cc1`, the Activity with Rattus norvegicus [1] was found to be 4.48%; in the assay filed under Bos taurus, 78.7%; in the assay with Rattus norvegicus [2] it was 2.7%.

With `CCN(CC)S(=O)(=O)c1ccc(CCN(C)C(=O)CCCCc2ccccc2)cc1`, in the assay listed under Bos taurus, the Activity was found to be 17.9%.

Regarding `CN(CCc1ccc(S(=O)(=O)N(C)C)cc1)C(=O)NCCCc1ccccc1`, the figures for the Activity in the assay filed under Bos taurus and in the assay filed under Rattus norvegicus [3] were 52.3% and 45.5%, respectively.

As to `Cc1ccc(CCNC(=O)CCCCc2ccccc2)cc1`, in the assay filed under Bos taurus, the Activity was found to be 62.9%.

Take `CN(C)S(=O)(=O)c1ccc(CCNC(=O)CCCCc2ccccc2)cc1`: the Activity was 3% in the assay filed under Gallus gallus; 14.85% in the assay on Rattus norvegicus [1]; -2.8% in the assay filed under Oryctolagus cuniculus; 59% in the assay listed under Bos taurus; 9.75% in the assay on Rattus norvegicus [2]; 18.6% in the assay listed under Rattus norvegicus [3].

In the case of `O=C(NCCCc1ccccc1)NCCc1ccccc1`, in the assay filed under Bos taurus, the Activity turned out to be 51.1%.

`CN(C)S(=O)(=O)c1ccc(CNC(=O)CCCCc2ccccc2)cc1`: the Activity in the assay listed under Bos taurus stood at 20%.

As for `O=C(CCCCc1ccccc1)NCCc1ccccc1`, the Activity in the assay filed under Gallus gallus is -2.8%; with Rattus norvegicus [1] it was 22.8%; in the assay filed under Oryctolagus cuniculus, -2.9%; in the assay listed under Bos taurus, 39.1%; in the assay on Rattus norvegicus [2], 13.97%; in the assay listed under Rattus norvegicus [3] it was 21.3%.

Consider `O=C(CCCCc1ccccc1)NCc1ccccc1`, for which, in the assay listed under Bos taurus, the Activity amounted to 33.1%.

With `CN(C)S(=O)(=O)c1ccc(CCCC(=O)N2CCN(c3ccccc3)CC2)cc1`, the Activity in the assay listed under Bos taurus stood at 14%.

For the compound `CN(C)S(=O)(=O)c1ccc(CCNC(=O)NCCCc2ccccc2)cc1`, the Activity in the assay filed under Bos taurus came to 91.6%; in the assay listed under Rattus norvegicus [3], 47.9%.

As to `CN(CCc1ccc(S(=O)(=O)N2CCOCC2)cc1)C(=O)CCCCc1ccccc1`, in the assay listed under Bos taurus, the Activity turned out to be 14.9%.

As to `COc1ccccc1CCNC(=O)CCCCc1ccccc1`, the values for the Activity in the assay on Rattus norvegicus [1], in the assay filed under Bos taurus and with Rattus norvegicus [2] were 13.06%, 57.4% and 9.18%, respectively.

On to `COC(=O)N1CCN(Cc2cccc(NC(=O)Nc3ccc(C)nc3)c2F)CC1`, for which the Activity in the assay filed under Rattus norvegicus [4] is 33.8%; in the assay filed under Gallus gallus, -5.5%; in the assay listed under Oryctolagus cuniculus, 2.8%; in the assay listed under Bos taurus it was 58%.

Turning to `CN(CCCc1ccccc1)C(=O)NCCc1ccc(S(=O)(=O)N(C)C)cc1`, the Activity in the assay filed under Bos taurus turned out to be 47.6%; in the assay filed under Rattus norvegicus [3], 63.5%.

`CN(CCc1ccc(S(=O)(=O)N(C)C)cc1)C(=O)CCCCc1ccccc1`: the Activity is 5.2% in the assay listed under Gallus gallus; 26.21% with Rattus norvegicus [1]; -4.8% in the assay listed under Oryctolagus cuniculus; 48.5% in the assay listed under Bos taurus; 15.28% with Rattus norvegicus [2]; 88.2% in the assay filed under Rattus norvegicus [3].

With `CN(C)S(=O)(=O)c1ccc(CCCC(=O)NCCCc2ccccc2)cc1`, the Activity in the assay filed under Gallus gallus is 4.1%; in the assay with Rattus norvegicus [1], 17.55%; in the assay listed under Oryctolagus cuniculus, -1.9%; in the assay listed under Bos taurus, 50.3%; in the assay on Rattus norvegicus [2], 11.65%; in the assay listed under Rattus norvegicus [3] it was 20.5%.

In the case of `O=C(CCCCc1ccccc1)NC1Cc2ccccc2C1`, in the assay filed under Bos taurus, the Activity came to 31.1%.

`NS(=O)(=O)c1ccc(CNC(=O)CCCCc2ccccc2)cc1`: in the assay filed under Bos taurus, the Activity is 44.4%.

In the case of `O=C(CCCc1ccccc1)NCCCc1ccccc1`, the Activity turned out to be 13.85% in the assay on Rattus norvegicus [1], 62% in the assay listed under Bos taurus and 9.08% with Rattus norvegicus [2].

With `CNS(=O)(=O)c1ccc(CN(C)C(=O)CCCCc2ccccc2)cc1`, the figures for the Activity in the assay with Rattus norvegicus [1], in the assay filed under Bos taurus and in the assay with Rattus norvegicus [2] were 15.75%, 55.9% and 9.95%, respectively.

Take `COc1ccc(CCNC(=O)CCCCc2ccccc2)cc1OC`: the results for the Activity in the assay with Rattus norvegicus [1], in the assay listed under Bos taurus and in the assay with Rattus norvegicus [2] were 11.83%, 71.6% and 8.19%, respectively.

Regarding `CCN(CCc1ccc(S(=O)(=O)N(C)C)cc1)C(=O)CCCCc1ccccc1`, the Activity in the assay listed under Bos taurus worked out at 13.9%.

On to `CN(Cc1ccc(S(=O)(=O)N(C)C)cc1)C(=O)CCCCc1ccccc1`, for which the Activity in the assay listed under Bos taurus turned out to be 24.1%.

Take `CN(C)S(=O)(=O)c1ccc(CCCC(=O)N2CCC(c3ccccc3)CC2)cc1`: the Activity in the assay filed under Bos taurus amounted to 29.5%.

For `Cc1ccc2c(c1)C(=O)[C@]1(O)CCN(c3ccccc3)C1=N2`, the values for the Activity in the assay listed under Gallus gallus and in the assay listed under Oryctolagus cuniculus were -35.7% and -50.7%, respectively.

In the case of `CNS(=O)(=O)c1ccc(CCN(C)C(=O)CCCCc2ccccc2)cc1`, the Activity in the assay on Rattus norvegicus [1] is 13.51%; in the assay filed under Bos taurus, 46.5%; in the assay on Rattus norvegicus [2] it was 9.22%.
